Assay results as given in PMC8776995 (Frontiers in Chemistry, 2022).
Several values for one entry are separate records, joined by “and”; a condition that tells them apart may be missing. Equal entries are not always repeated.

Columns and labels:
[1] = tested on: EGFR phosphorylation (Tyr1068) in H460 cells; assay: Western blot, p-EGFR/EGFR in H460; conditions: H460, 10 uM
Description: (§1) We also performed western blot analysis to evaluate the impact of e4 and e12 on EGFR signaling in PC-9 and H460 cells.
(§2) H460 cells were seeded in six-well plates with serum-free medium overnight, and then treated complete medium containing 0.1% DMSO, various concentrations (0.1, 1 and 10 μM) of either compound e4 or e12 for 2 h, respectively. […] Then the H460 cells were treated with complete medium containing EGF (10 ng/ml) for 5 min. Then the cells were harvested and washed with PBS, centrifuged, resuspended in 100–200 μl of RIPA lysis buffer containing Protease and Phosphatase Inhibitor Cocktail (1X), and then centrifuged for 5 min at 12,000 rpm at 4°C. The supernatant was used for protein analysis. […] Then the membrane was washed 5 min (X3) and incubated at 1:3,000 dilution of anti-rabbit secondary antibodies or 1:1,000 dilution of anti-mouse secondary antibodies for 1 h at RT. After washing with TBST 5 min (X3), protein bands were developed by chemiluminescence. The protein levels were quantified by the gray values of the bands in the resulting images by ImageJ, and the control group was used as the standard. […] The PC-9 cells were harvested and analyzed as above.

[2] = tested on: AKT phosphorylation (S473) in H460 cells; assay: Western blot, p-AKT/AKT in H460; conditions: H460, 10 uM
Description: as §1, §2

[3] = tested on: H1975 cells; assay: CCK-8 antiproliferation assay, H1975
[4] = tested on: H460 cells; assay: CCK-8 antiproliferation assay, H460
[5] = tested on: A549 cells; assay: CCK-8 antiproliferation assay, A549; conditions: for Inhibitory efficacy: A549 cells
Description: The compounds were dissolved in DMSO to make a 20 μM stock solution and diluted to the concentration of working solutions with complete growth medium before administration.
Cells were seeded in 96-well plates: 3,000–5,000 cells/well in 100 ul. One day after seeding, the test compounds at concentration between 1.0 and 16.0 μ M or 0.1% DMSO (as control) were added to cells in triplicate. 48 h later, CCK-8 was added and incubated the plate for 1–4 h in the incubator. The absorbance at 450 nm were measured using a microplate reader (Bio-Tek).

[6] = tested on: AKT phosphorylation (S473) in PC-9 cells; assay: Western blot, p-AKT/AKT in PC-9; conditions: PC-9, 10 uM
Description: as §1, §2

[7] = tested on: EGFR phosphorylation (Tyr1068) in PC-9 cells; assay: Western blot, p-EGFR/EGFR in PC-9; conditions: PC-9, 10 uM
Description: as §1, §2

[8] = tested on: PC-9 cells; assay: CCK-8 antiproliferation assay, PC-9; conditions: Homo sapiens, PC-9, 48 h, read-out: IC50 (μM) PC-9
[9] = tested on: PC-9 xenograft; assay: In vivo antitumor activity, PC-9 xenograft in NSG mice; design: species or system mouse; conditions: Day19, individual animals
Description: The mouse body mass was recorded as well.

[10] = target: wild-type EGFR (Homo sapiens, UniProt P00533); assay: EGFR kinase assay (ELISA); conditions: for A450: raw ELISA absorbance
Sequence of wild-type EGFR (P00533 25-1210): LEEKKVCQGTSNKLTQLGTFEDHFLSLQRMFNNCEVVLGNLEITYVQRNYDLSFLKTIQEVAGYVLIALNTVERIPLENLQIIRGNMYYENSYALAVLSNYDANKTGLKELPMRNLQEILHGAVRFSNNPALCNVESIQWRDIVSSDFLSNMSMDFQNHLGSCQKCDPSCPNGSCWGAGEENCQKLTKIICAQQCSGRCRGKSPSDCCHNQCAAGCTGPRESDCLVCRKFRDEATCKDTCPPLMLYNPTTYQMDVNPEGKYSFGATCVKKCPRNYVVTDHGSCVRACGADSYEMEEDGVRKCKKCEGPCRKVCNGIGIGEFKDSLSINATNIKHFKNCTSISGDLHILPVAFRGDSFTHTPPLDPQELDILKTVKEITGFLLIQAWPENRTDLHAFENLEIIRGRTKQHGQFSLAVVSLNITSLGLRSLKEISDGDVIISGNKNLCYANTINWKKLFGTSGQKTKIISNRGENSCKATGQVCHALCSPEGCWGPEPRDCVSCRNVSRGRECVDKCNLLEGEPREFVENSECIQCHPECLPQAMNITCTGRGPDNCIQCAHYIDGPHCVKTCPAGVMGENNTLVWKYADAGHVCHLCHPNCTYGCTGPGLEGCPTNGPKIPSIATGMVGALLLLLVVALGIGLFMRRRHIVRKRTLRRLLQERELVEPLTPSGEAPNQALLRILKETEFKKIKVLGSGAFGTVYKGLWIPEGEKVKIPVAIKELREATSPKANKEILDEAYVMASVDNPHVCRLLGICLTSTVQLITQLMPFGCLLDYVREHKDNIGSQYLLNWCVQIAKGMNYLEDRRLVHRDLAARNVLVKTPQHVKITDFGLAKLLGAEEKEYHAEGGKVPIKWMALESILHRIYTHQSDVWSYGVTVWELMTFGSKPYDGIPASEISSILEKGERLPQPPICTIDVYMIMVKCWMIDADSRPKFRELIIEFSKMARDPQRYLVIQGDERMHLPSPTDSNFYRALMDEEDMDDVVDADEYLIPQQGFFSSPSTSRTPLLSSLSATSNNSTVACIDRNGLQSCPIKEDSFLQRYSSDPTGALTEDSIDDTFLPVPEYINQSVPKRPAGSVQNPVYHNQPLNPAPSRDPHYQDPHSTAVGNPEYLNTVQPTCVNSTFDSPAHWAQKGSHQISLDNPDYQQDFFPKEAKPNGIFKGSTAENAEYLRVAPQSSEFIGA

## COCCOc1cc2ncnc(Nc3cccc(-c4cn(-c5ccccc5)nn4)c3)c2cc1OCCOC [e15, [6,7-Bis-(2-methoxy-ethoxy)-quinazolin-4-yl]-[3-(1-phenyl-1H-[1,2,3]triazol-4-yl)-phenyl]-amine]
[1]; band density ratio
  p-EGFR/EGFR: 0.02304
[1]; ratio normalised to DMSO
  p-EGFR/EGFR relative to DMSO: 0.02768
[2]; band density ratio
  p-AKT/AKT: 0.08408
[2]; ratio normalised to DMSO
  p-AKT/AKT relative to DMSO: 0.08452
[3]; H1975 cells, 8uM, given as fraction, Repeat 1-3
  Inhibitory efficacy: 0.07522 and 0.1057
[3]; Homo sapiens, NCI-H1975, 48 h, read-out: IC50 (μM) H1975, CCK-8, 48 h, average ± SD of three independent experiments
  IC50: > 100 µM
[3]; Homo sapiens, NCI-H1975, read-out: Inhibitory efficacy, H1975 cells, 8uM, given as fraction, Repeat 1-3
  inhibition at 8 µM: 6.27%
[4]; H460 cells, 2uM, given as fraction, Repeat 1-3
  Inhibitory efficacy: 0.04615 and 0.05031
[4]; Homo sapiens, NCI-H460, 48 h, read-out: IC50 (μM) H460, CCK-8, 48 h, average ± SD of three independent experiments
  IC50: > 100 µM
[4]; Homo sapiens, NCI-H460, read-out: Inhibitory efficacy, H460 cells, 2uM, given as fraction, Repeat 1-3
  inhibition at 2 µM: 5.86%
[5]; 1uM, given as fraction, Repeat 1-3
  Inhibitory efficacy: 0.1367 and 0.1269
[5]; 2uM, given as fraction, Repeat 1-3
  Inhibitory efficacy: 0.193 and 0.2629
[5]; 4uM, given as fraction, Repeat 1-3
  Inhibitory efficacy: 0.2103 and 0.2621
[5]; 8uM, given as fraction, Repeat 1-3
  Inhibitory efficacy: 0.2141 and 0.1622
[5]; 16uM, given as fraction, Repeat 1-3
  Inhibitory efficacy: 0.2043 and 0.1059
[5]; Homo sapiens, A549, 48 h, read-out: IC50 (μM) A549, CCK-8, 48 h, average ± SD of three independent experiments
  IC50: > 100 µM
[5]; Homo sapiens, A549, read-out: Inhibitory efficacy, A549 cells, 1uM, given as fraction, Repeat 1-3
  inhibition at 1 µM: 11.7%
[5]; Homo sapiens, A549, read-out: Inhibitory efficacy, A549 cells, 2uM, given as fraction, Repeat 1-3
  inhibition at 2 µM: 15.2%
[5]; Homo sapiens, A549, read-out: Inhibitory efficacy, A549 cells, 4uM, given as fraction, Repeat 1-3
  inhibition at 4 µM: 18.5%
[5]; Homo sapiens, A549, read-out: Inhibitory efficacy, A549 cells, 8uM, given as fraction, Repeat 1-3
  inhibition at 8 µM: 14.6%
[5]; Homo sapiens, A549, read-out: Inhibitory efficacy, A549 cells, 16uM, given as fraction, Repeat 1-3
  inhibition at 16 µM: 11.9%
[6]; band density ratio
  p-AKT/AKT: 0.03365
[6]; ratio normalised to DMSO = 1
  p-AKT/AKT relative to DMSO: 0.03231
[7]; band density ratio
  p-EGFR/EGFR: 0.2353
[7]; ratio normalised to DMSO = 1
  p-EGFR/EGFR relative to DMSO: 0.2103
[8]
  IC50: > 100 µM
[9]
  Tumor weight: 0.04 g and 0.03 g and 0.02 g and 0.01 g
[10]; IC50 (μM) EGFR, ELISA, 3 μmol/L ATP
  IC50: 0.09 µM
[10]; concentration 0.0001 nM (reference for normalisation), one value per replicate column
  inhibition at 100 fM: 0%
[10]; concentration 0.03 nM, one value per replicate column, 3e-05 µM
  Inhibition: 3.563 and 0.1327
[10]; concentration 0.3 nM, one value per replicate column, 0.0003 µM
  Inhibition: 14.0143 and 0.8626
[10]; concentration 3 nM, one value per replicate column
  inhibition at 0.003 µM: 33.2%
[10]; concentration 3 nM, one value per replicate column, 0.003 µM
  Inhibition: 30.0597
[10]; concentration 30 nM, one value per replicate column
  inhibition at 0.03 µM: 44.4%
[10]; concentration 30 nM, one value per replicate column, 0.03 µM
  Inhibition: 47.6443
[10]; concentration 300 nM, one value per replicate column
  inhibition at 0.3 µM: 59.3%
[10]; concentration 300 nM, one value per replicate column, 0.3 µM
  Inhibition: 58.7259
[10]; concentration 3000 nM, one value per replicate column
  inhibition at 3 µM: 68.1%
[10]; concentration 3000 nM, one value per replicate column, 3 µM
  Inhibition: 67.4851
[10]; concentration 30000 nM, one value per replicate column
  inhibition at 30 µM: 86.9%
[10]; concentration 30000 nM, one value per replicate column, 30 µM
  Inhibition: 93.1652
[10]; concentration 0.0001 nM
  A450: 1.566 and 1.805
[10]; concentration 0.03 nM
  A450: 1.521 and 1.803
[10]; concentration 0.3 nM
  A450: 1.389 and 1.792
[10]; concentration 3 nM
  A450: 1.147 and 1.352
[10]; concentration 30 nM
  A450: 1.005 and 1.087
[10]; concentration 300 nM
  A450: 0.817 and 0.92
[10]; concentration 3000 nM
  A450: 0.706 and 0.788
[10]; concentration 30000 nM
  A450: 0.469 and 0.401
